Results taken from ChEMBL document CHEMBL4706513, “New insight into 20(S)-ginsenoside Rh2 against T-cell acute lymphoblastic leukemia associated with the gut microbiota and the immune system” (2020).
Active and inactive are the calls of the source.

What was measured:
Mus musculus [1] = assay: Induction of intestinal homeostasis in SCID/NOD mouse xenografted with human Jurkat cells assessed as upregulation of secretion of IgA from B cells in colon at 40 mg/kg, po administered once a day for 3 weeks by western blot analysis; type: functional, organism-based; conditions: dose 40.0 mg/kg/day
Mus musculus [2] = assay: Induction of intestinal homeostasis in SCID/NOD mouse xenografted with human Jurkat cells assessed as increase in Reg3b expression in colon at 40 mg/kg, po administered once a day for 3 weeks by Western blot analysis; type: functional, organism-based; conditions: dose 40.0 mg/kg/day
Mus musculus [3] = assay: Induction of intestinal homeostasis in SCID/NOD mouse xenografted with human Jurkat cells assessed as increase in Reg3g expression in colon at 40 mg/kg, po administered once a day for 3 weeks by Western blot analysis; type: functional, organism-based; conditions: dose 40.0 mg/kg/day
Mus musculus [4] = assay: Inhibition of intestinal inflammation in SCID/NOD mouse xenografted with human Jurkat cells assessed as decrease in TLR4 expression in colon at 40 mg/kg, po administered once a day for 3 weeks by Western blot analysis; type: functional, organism-based; conditions: dose 40.0 mg/kg/day
Mus musculus [5] = assay: Inhibition of intestinal inflammation in SCID/NOD mouse xenografted with human Jurkat cells assessed as decrease in MYD88 expression in colon at 40 mg/kg, po administered once a day for 3 weeks by Western blot analysis; type: functional, organism-based; conditions: dose 40.0 mg/kg/day
Mus musculus [6] = assay: Inhibition of intestinal inflammation in SCID/NOD mouse xenografted with human Jurkat cells assessed as decrease in LPS level in colon at 40 mg/kg, po administered once a day for 3 weeks by ELISA; type: functional, organism-based; conditions: dose 40.0 mg/kg/day
Mus musculus [7] = assay: Inhibition of intestinal inflammation in SCID/NOD mouse xenografted with human Jurkat cells assessed as decrease in TNFalpha level in colon at 40 mg/kg, po administered once a day for 3 weeks by ELISA; type: functional, organism-based; conditions: dose 40.0 mg/kg/day
Mus musculus [8] = assay: Inhibition of intestinal inflammation in SCID/NOD mouse xenografted with human Jurkat cells assessed as decrease in IL1beta level in colon at 40 mg/kg, po administered once a day for 3 weeks by ELISA; type: functional, organism-based; conditions: dose 40.0 mg/kg/day
Mus musculus [9] = assay: Inhibition of intestinal inflammation in SCID/NOD mouse xenografted with human Jurkat cells assessed as decrease in IL-6 level in colon at 40 mg/kg, po administered once a day for 3 weeks by ELISA; type: functional, organism-based; conditions: dose 40.0 mg/kg/day
Mus musculus [10] = assay: Inhibition of intestinal inflammation in SCID/NOD mouse xenografted with human Jurkat cells assessed as increase in IL-10 level in colon at 40 mg/kg, po administered once a day for 3 weeks by ELISA; type: functional, organism-based; conditions: dose 40.0 mg/kg/day
Mus musculus [11] = assay: Inhibition of intestinal inflammation in SCID/NOD mouse xenografted with human Jurkat cells assessed as increase in TGFbeta level in colon at 40 mg/kg, po administered once a day for 3 weeks by ELISA; type: functional, organism-based; conditions: dose 40.0 mg/kg/day
Mus musculus [12] = assay: Induction of intestinal homeostasis in SCID/NOD mouse xenografted with human Jurkat cells assessed as decrease in disordered arrangement of epithelial cells in the colon at 40 mg/kg, po administered once a day for 3 weeks by AB-PAS staining based microscopic analysis; type: functional, organism-based; conditions: dose 40.0 mg/kg/day
Mus musculus [13] = assay: Inhibition of intestinal dysbiosis in SCID/NOD mouse xenografted with human Jurkat cells assessed as increase in abundance of Bacteroidetes in cecum at 40 mg/kg, po administered once a day for 3 weeks by multiplexed 16S rRNA gene sequencing analysis; type: functional, organism-based; conditions: dose 40.0 mg/kg/day
Mus musculus [14] = assay: Inhibition of intestinal dysbiosis in SCID/NOD mouse xenografted with human Jurkat cells assessed as increase in abundance of Verrucomicrobia in cecum at 40 mg/kg, po administered once a day for 3 weeks by multiplexed 16S rRNA gene sequencing analysis; type: functional, organism-based; conditions: dose 40.0 mg/kg/day
Mus musculus [15] = assay: Inhibition of intestinal dysbiosis in SCID/NOD mouse xenografted with human Jurkat cells assessed as decrease in abundance of Firmicutes in cecum at 40 mg/kg, po administered once a day for 3 weeks by multiplexed 16S rRNA gene sequencing analysis; type: functional, organism-based; conditions: dose 40.0 mg/kg/day
Mus musculus [16] = assay: Inhibition of intestinal dysbiosis in SCID/NOD mouse xenografted with human Jurkat cells assessed as decrease in abundance of Proteobacteria in cecum at 40 mg/kg, po administered once a day for 3 weeks by multiplexed 16S rRNA gene sequencing analysis; type: functional, organism-based; conditions: dose 40.0 mg/kg/day
Mus musculus [17] = assay: Inhibition of intestinal dysbiosis in SCID/NOD mouse xenografted with human Jurkat cells assessed as decrease in ratio of Firmicutes to Bacteroidetes in cecum at 40 mg/kg, po administered once a day for 3 weeks by multiplexed 16S rRNA gene sequencing analysis; type: functional; conditions: dose 40 mg/kg/day
Mus musculus [18] = assay: Inhibition of intestinal dysbiosis in SCID/NOD mouse xenografted with human Jurkat cells assessed as increase in abundance of Akkermansia in cecum at 40 mg/kg, po administered once a day for 3 weeks by multiplexed 16S rRNA gene sequencing analysis; type: functional, organism-based; conditions: dose 40.0 mg/kg/day
Mus musculus [19] = assay: Inhibition of intestinal dysbiosis in SCID/NOD mouse xenografted with human Jurkat cells assessed as increase in abundance of Lactobacillus in cecum at 40 mg/kg, po administered once a day for 3 weeks by multiplexed 16S rRNA gene sequencing analysis; type: functional, organism-based; conditions: dose 40.0 mg/kg/day
Mus musculus [20] = assay: Inhibition of intestinal dysbiosis in SCID/NOD mouse xenografted with human Jurkat cells assessed as increase in abundance of Lachnospiraceae_ NK4A136_group in cecum at 40 mg/kg, po administered once a day for 3 weeks by multiplexed 16S rRNA gene sequencing analysis; type: functional, organism-based; conditions: dose 40.0 mg/kg/day
Mus musculus [21] = assay: Inhibition of intestinal dysbiosis in SCID/NOD mouse xenografted with human Jurkat cells assessed as decrease in abundance of parabacteroides in cecum at 40 mg/kg, po administered once a day for 3 weeks by multiplexed 16S rRNA gene sequencing analysis; type: functional, organism-based; conditions: dose 40.0 mg/kg/day
Mus musculus [22] = assay: Inhibition of intestinal dysbiosis in SCID/NOD mouse xenografted with human Jurkat cells assessed as decrease in abundance of Alistipes in cecum at 40 mg/kg, po administered once a day for 3 weeks by multiplexed 16S rRNA gene sequencing analysis; type: functional, organism-based; conditions: dose 40.0 mg/kg/day
Mus musculus [23] = assay: Induction of intestinal homeostasis in SCID/NOD mouse xenografted with human Jurkat cells assessed as decrease in enlarged colon tissue at 40 mg/kg, po administered once a day for 3 weeks by AB-PAS staining based microscopic analysis; type: functional, organism-based; conditions: dose 40.0 mg/kg/day
Mus musculus [24] = assay: Induction of intestinal homeostasis in SCID/NOD mouse xenografted with human Jurkat cells assessed as reduction in crypt depth in colon at 40 mg/kg, po administered once a day for 3 weeks by AB-PAS staining based microscopic analysis; type: functional, organism-based; conditions: dose 40.0 mg/kg/day

CC(C)=CCC[C@](C)(O)[C@H]1CC[C@]2(C)[C@@H]1[C@H](O)C[C@@H]1[C@@]3(C)CC[C@H](O[C@@H]4O[C@H](CO)[C@@H](O)[C@H](O)[C@H]4O)C(C)(C)[C@@H]3CC[C@]12C [GINSENOSIDE RH2]
active: Activity (Mus musculus [1]) | Activity (Mus musculus [2]) | Activity (Mus musculus [3]) | inhibition (Mus musculus [4]) | inhibition (Mus musculus [5]) | inhibition (Mus musculus [6]) | inhibition (Mus musculus [7]) | inhibition (Mus musculus [8]) | inhibition (Mus musculus [9]) | inhibition (Mus musculus [10]) | inhibition (Mus musculus [11]) | Activity (Mus musculus [12]) | inhibition (Mus musculus [13]) | inhibition (Mus musculus [14]) | inhibition (Mus musculus [15]) | inhibition (Mus musculus [16]) | inhibition (Mus musculus [18]) | inhibition (Mus musculus [19]) | inhibition (Mus musculus [20]) | inhibition (Mus musculus [21]) | inhibition (Mus musculus [22]) | Activity (Mus musculus [23]) | Activity (Mus musculus [24])
0.47: Ratio (Mus musculus [17])
